Assay results from ChEMBL document CHEMBL1932950, “Inhibitory constituents of Nardostachys chinensis on nitric oxide production in RAW 264.7 macrophages” (Bioorg Med Chem Lett, 2012).

Columns and labels:
RAW264.7 [1] = assay: Antiinflammatory activity in mouse RAW264.7 cells assessed as inhibition of LPS-induced NO production after 24 hrs by Griess method; format: functional, cell-based; settings: for IC50: RAW264.7, 24 h
RAW264.7 [2] = assay: Cytotoxicity against mouse RAW264.7 cells by CCK assay; format: cell-based

Row | SMILES | IC50 (RAW264.7 [1]) | inhibition (RAW264.7 [1]) | Activity (RAW264.7 [2])
1 | C[C@@H]1C[C@@H](O)C=C2C(=O)C[C@H]3OOC(C)(C)[C@H]3[C@]21C [KANSHONE B] | 11.5 µM | Dose-dependent effect | Non-toxic
2 | COc1cc([C@H]2OC[C@H]3[C@@H]2CO[C@@H]3c2ccc(O)c(OC)c2)ccc1O [(+)-PINORESINOL] |  |  | Non-toxic
3 | COc1ccc(/C=C/C(=O)O)cc1O [ISOFERULIC ACID] | > 50 µM |  | Non-toxic
4 | COc1cc(C2OC2CO)ccc1O (centres undefined) [EPOXYCONIFERYL ALCOHOL] | > 50 µM |  | Non-toxic
5 | O=C(O)/C=C/c1ccc(O)cc1 [COUMARIC ACID] | > 50 µM |  | Non-toxic
6 | COc1cc([C@@H]2OC[C@@H]3[C@H]2CO[C@H]3c2ccc(O)c(OC)c2)ccc1O [(+)-PINORESINOL] | 33.5 µM |  | 
7 | C[C@@H]1CCC=C2C(=O)C[C@H]3OOC(C)(C)[C@H]3[C@]21C [NARDOSINONE] | 11.1 µM | Dose-dependent effect | Non-toxic
8 | C[C@H]1[C@H](C)CC[C@]2(C(=O)O)CC[C@]3(C)C(=CC[C@@H]4[C@@]5(C)CC[C@H](O)C(C)(C)[C@@H]5CC[C@]43C)[C@H]12 [URSOLIC ACID] | > 50 µM |  | Non-toxic

The next lines start with results.

Row | IC50 (RAW264.7 [1]) | SMILES | inhibition (RAW264.7 [1]) | Activity (RAW264.7 [2])
9 | 4.6 µM | C[C@@H]1C[C@H](O)C=C2C(=O)C=C[C@@H](O)[C@]21C [NARCHINOL B] | Dose-dependent effect | Non-toxic
10 | > 50 µM | C[C@@H]1CC(=O)C=C2[C@H](O)C[C@@H]3[C@@H](C3(C)C)[C@]21C [DEBILON] |  | Non-toxic
11 | > 50 µM | C[C@@H]1CCC=C2C(=O)CC(=O)C[C@]21C |  | Non-toxic
12 | 8.4 µM | C[C@@H]1CCC=C2C(=O)C=C[C@@H](O)[C@]21C | Dose-dependent effect | Non-toxic
13 | 21.6 µM | C[C@@H]1C[C@@H](O)C=C2C(=O)C=C[C@@H](O)[C@]21C [NARCHINOL C] | Dose-dependent effect | Non-toxic
